Experimental data as given in patent publication US9440926B2, “Antiviral compounds and methods” (Biotron Limited, priority 2005, dated 2016).

How the values were obtained:
Type in all cases: cell-based
HIV-1 strain Ba-L = assay: HIV-1 Ba-L growth inhibition in primary macrophages (p24 ELISA); settings: Human immunodeficiency virus 1, BAL, Primary macrophage; additional compounds, same assay system (HIV-1Ba-L, primary macrophages), estimated from dose response curves; read-out: Estimated IC50
Method: The inhibition specifically of HIV-1 growth by the compounds of the invention was tested in primary macrophages in vitro using a method similar to that used to assess antibody neutralization (VanCott T C et al (1999)). In the present case, the laboratory adapted HIV-1 strain Ba-L was used, which is known to infect macrophages.
Peripheral Blood Mononuclear Cells (PBMC) were prepared from healthy donors using buffy-coat packs obtained from the Australian Red Cross Blood Service (ARCBS). Blood was received the day following donation, and had been depleted of serum and platelets, leaving a small volume (less than 100 mL) of concentrated leukocytes.
Leukocytes were separated from blood cells and granulocytes by density gradient centrifugation (Ficoll Paque) and washed extensively in PBS^− (without Ca/Mg) to remove platelets. Recovered cells were allowed to adhere to plastic tissue culture flasks (Becton Dickinson) for 2 hr, 37° C., 5% CO2, in media (DMEM (high)/10% AB serum/50 ug/mL gentamicin/2 mM L-glutamine) during which time the myeloid cells formed an adherent monolayer leaving lymphocytes unattached.
Non-adherent lymphocytes were removed by washing with warm PBS^+ (with Ca/Mg) and were generally discarded. In some cases those cells were recovered and frozen in media/10% DMSO for use in viral stock infections. The adherent monocytes were recovered by scraping gently with a plastic cell scraper. The myeloid cells were then plated into 96-well plates at a cell concentration of 1.5×10^6/mL, and allowed to fully differentiate over a period of 14 days.
Macrophages were allowed to differentiate over a 14 day period, with media changes as required. On day 14, cells were infected in the presence of decreasing concentrations of BIT compounds over a range 0-10 μM. Samples of 25 μL culture supernatants were removed from each well on day 7 and fresh media plus compound dilution was added.
After 7 days the samples with and without compound were analysed to assess the level of virus present in the wells, using a p24 ELISA (Innotest). Virus levels in samples were converted to “percentage of control virus growth” values based on the controls (containing no compound). From that dose response curve (example FIG. 1) the IC50 was calculated and used as a measure of compound anti-HIV activity.

[1] = Cytotoxicity to cells in the viral inhibition assay (MTT assay); settings: human, primary human macrophages, additional compounds, same assay system, MTT, read-out: TC50 (the source's name)
Method: The toxicity of test compounds to cells in the viral inhibition assay was determined using the MTT assay (Pauwels R, et al. (1988); D'Cruz O J et al. (1999); Joo H. (2003)). This method utilises Thiazolyl Blue (MTT), which is added to the cell culture (100 ug/well), and incubated for 4-5 hours whilst the live, metabolically active cells convert the chemical to its purple coloured metabolite, which forms intracellular crystals. The purple colour is measured colourimetrically (570-590 nm) once cells have been permeabilised using acidified isopropanol containing 10% triton X-100. The most intense colour development occurs in wells where the metabolising cells are most numerous. […] Those values were estimated manually from the Percentage Viability vs Concentration dose response curves (FIG. 1). The compound toxicity to cells in culture was taken into account in inhibition experiments and in separate experiments involving increased concentrations of compound. TC50 values were estimated in separate experiments (not shown) where concentrations of compound were greater.

Vpu = target: T1, Vpu (Human immunodeficiency virus type 1 group M subtype B, UniProt P05919); assay: Bacterial bioassay, Vpu; settings: mean bacterial bioassay score; Vpu of HIV
T1 construct: expressed in transfected cells
Description: (§1) The bacterial bioassay method used in the present example to test the anti-viral activity of the compounds against different viral targets was described in detail in PCT/2004/000866, incorporated in its entirety herein by reference. Vpu, p7 and M referred to in the table are small membrane proteins encoded by HIV, HCV and Dengue viruses, respectively, which have functional activities supporting viral growth and/or replication.

HCV p7 = target: T2, HCV p7 (Hepatitis C virus genotype 1a, UniProt P27958); assay: Bacterial bioassay, HCV p7; parameters: scale not given here; settings: mean bacterial bioassay score; p7 of HCV
T2 construct: expressed in transfected cells
Description: as §1

Den M = target: T3, Den M (Dengue virus type 1, UniProt P33478); assay: Bacterial bioassay, Den M; parameters: scale not given here; settings: mean bacterial bioassay score; M protein of Dengue virus
T3 construct: expressed in transfected cells
Description: as §1

T2 sequence (P27958 747-809): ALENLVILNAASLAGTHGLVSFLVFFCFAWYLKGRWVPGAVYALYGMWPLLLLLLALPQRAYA
T1 sequence (P05919 whole entry): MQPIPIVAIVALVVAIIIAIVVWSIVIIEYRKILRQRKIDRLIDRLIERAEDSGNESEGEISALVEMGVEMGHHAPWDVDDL
T3 sequence (P33478 206-280): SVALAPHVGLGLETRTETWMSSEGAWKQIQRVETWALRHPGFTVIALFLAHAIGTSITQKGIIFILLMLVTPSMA

Compound	IC50 (HIV-1 strain Ba-L) [µM]	CC50 [1] [µM]	Average Bacterial Assay Score, Vpu (Vpu)	Average Bacterial Assay Score, HCV p7 (HCV p7)	Average Bacterial Assay Score, Den M (Den M)
Cc1nn(C)c(C)c1-c1cccc2cc(C(=O)NC(=N)N)ccc12 [BIT309, (5-(1,3,5-trimethylpyrazol-4-yl)-2-napthoyl)guanidine]	> 10	> 50	0.12	0.00	0.00
CC(C)Cn1cc(-c2cccc3cc(C(=O)NC(=N)N)ccc23)cn1 [BIT310, (5-(1-isobutyl-1H-pyrazol-4-yl)-2-napthoyl)guanidine]	< 2.5	10 to 50	0.00	0.00	1.60
N=C(N)NC(=O)c1ccc2c(-c3ccoc3)cccc2c1 [BIT311, (5-(3-furyl)-2-napthoyl)guanidine]	< 0.63	10 to 50	0.42	0.42	1.60
N=C(N)NC(=O)c1ccc2c(C3CC3)cccc2c1 [BIT312, (5-cyclopropyl-2-napthoyl)guanidine]	< 0.63	10 to 50	0.50	0.80	2.25
N=C(N)NC(=O)c1ccc2c(Cl)cccc2c1 [BIT313, (5-chloro-2-napthoyl)guanidine]	< 2.5	10 to 50	0.30	1.30	3.00
